We go through nine molecules from patent US7838498B2, “Benzylic glycoside derivatives and methods of use” (Theracos, Inc., priority 2007, dated 2010).

Where only a bound is given, the exact number is not on record here.

Test [1] deals with T1, human SGLT2 (Homo sapiens, UniProt P31639).
T1 construct: A full-length cDNA clone expressing human SGLT2 (GenScript Corporation) was subcloned
T1 sequence (P31639 1-672): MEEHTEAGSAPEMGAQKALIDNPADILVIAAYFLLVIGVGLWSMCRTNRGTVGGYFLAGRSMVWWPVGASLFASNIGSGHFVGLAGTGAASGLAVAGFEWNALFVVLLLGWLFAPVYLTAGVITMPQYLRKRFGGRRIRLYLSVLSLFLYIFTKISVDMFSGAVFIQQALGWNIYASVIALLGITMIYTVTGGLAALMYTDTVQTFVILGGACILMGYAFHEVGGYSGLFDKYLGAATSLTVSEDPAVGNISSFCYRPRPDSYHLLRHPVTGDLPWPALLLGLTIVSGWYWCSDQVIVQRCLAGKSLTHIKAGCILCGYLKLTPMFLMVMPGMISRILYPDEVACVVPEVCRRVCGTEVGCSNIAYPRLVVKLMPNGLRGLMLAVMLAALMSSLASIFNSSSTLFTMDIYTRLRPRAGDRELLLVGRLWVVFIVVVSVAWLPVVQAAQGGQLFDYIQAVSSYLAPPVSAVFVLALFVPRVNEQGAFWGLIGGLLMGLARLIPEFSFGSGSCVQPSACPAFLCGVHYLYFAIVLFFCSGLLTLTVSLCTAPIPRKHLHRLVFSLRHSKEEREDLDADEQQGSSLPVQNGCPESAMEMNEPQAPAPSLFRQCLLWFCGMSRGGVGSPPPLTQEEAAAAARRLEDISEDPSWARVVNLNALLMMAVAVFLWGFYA
As to the kind of experiment: Methyl-α-D-[U-14C]glucopyranoside uptake assay, cells stably expressing human SGLT2. Format: cell-based. As to conditions: HEK293.ETN cells expressing human SGLT2, 1.5 h incubation, without human serum (symbols without parentheses). An excerpt:
A full-length cDNA clone expressing human SGLT2 (GenScript Corporation) was subcloned into […] and Not I sites of pEAK15 expression vector. Clones harboring the cDNA inserts were identified by restriction analysis.
Plasmid containing human SGLT2 was linearized with Nsi I and purified by agarose gel electrophoresis. Using Lipofectamine 2000 Transfection Reagent (Invitrogen Corporation), DNA was transfected into HEK293.ETN cells and cultured in Dulbecco's Modified Eagle Medium (DMEM) containing 10% fetal bovine serum (FBS) at 37° C. under 5% CO2 for 24 h. Transfectants were selected in the same growth medium supplemented with puromycin (Invitrogen Corporation) for two weeks. Puromycin-resistant cells were recovered and seeded on a fresh 96-well plate (single cell per well) and cultured in the presence of puromycin until cells became confluent. Puromycin-resistant clones were evaluated for SGLT2 activity in the methyl-α-D-[U-^14C]glucopyranoside uptake assay described below.
(§1) Cells expressing SGLT1 or SGLT2 were seeded on 96-well ScintiPlate scintillating plates (PerkinElmer, Inc.) in DMEM containing 10% FBS (1×10^5 cells per well in 100 μL medium) incubated at 37° C. under 5% CO2 for 48 h prior to the assay. Cells were washed twice with 150 μL of either sodium buffer (137 mM NaCl, 5.4 mM KCl, 2.8 mM CaCl2, 1.2 mM MgCl2, 10 mM tris(hydroxymethyl)aminomethane/N2-hydroxyethylpiperazine-N′-ethanesulfonic acid [Tris/Hepes], pH 7.2) or sodium-free buffer (137 mM N-methyl-glucamine, 5.4 mM KCl, 2.8 mM CaCl2, 1.2 mM MgCl2, 10 mM Tris/Hepes, pH 7.2). Test compound in 50 μL each of sodium or sodium-free buffer containing 40 μCi/L methyl-α-D-[U-^14C]glucopyranoside (Amersham Biosciences/GE Healthcare), either with (symbols in parentheses) or without (symbols without parentheses) 25% human serum, was added per well of a 96-well plate and incubated at 37° C. with shaking for either 2 h (SGLT1 assay) or 1.5 h (SGLT2 assay). Cells were washed twice with 150 μL of wash buffer (137 mM N-methylglucamine, 10 mM Tris/Hepes, pH 7.2) and methyl-α-D-[U-^14C]glucopyranoside uptake was quantitated using a TopCount scintillation counter (PerkinElmer, Inc.). Sodium-dependent glucopyranoside uptake was measured by subtracting the values obtained with sodium-free buffer from those obtained using sodium buffer (average of triplicate determinations).

For test [2], the target named is T2, human SGLT1 (Homo sapiens, UniProt P13866).
T2 construct: Full-length human SGLT1 cDNA on pDream2.1 expression vector was obtained from GenScript Corporation; host or cells: COS-7 cells (American Type Culture Collection)
T2 sequence (P13866 1-664): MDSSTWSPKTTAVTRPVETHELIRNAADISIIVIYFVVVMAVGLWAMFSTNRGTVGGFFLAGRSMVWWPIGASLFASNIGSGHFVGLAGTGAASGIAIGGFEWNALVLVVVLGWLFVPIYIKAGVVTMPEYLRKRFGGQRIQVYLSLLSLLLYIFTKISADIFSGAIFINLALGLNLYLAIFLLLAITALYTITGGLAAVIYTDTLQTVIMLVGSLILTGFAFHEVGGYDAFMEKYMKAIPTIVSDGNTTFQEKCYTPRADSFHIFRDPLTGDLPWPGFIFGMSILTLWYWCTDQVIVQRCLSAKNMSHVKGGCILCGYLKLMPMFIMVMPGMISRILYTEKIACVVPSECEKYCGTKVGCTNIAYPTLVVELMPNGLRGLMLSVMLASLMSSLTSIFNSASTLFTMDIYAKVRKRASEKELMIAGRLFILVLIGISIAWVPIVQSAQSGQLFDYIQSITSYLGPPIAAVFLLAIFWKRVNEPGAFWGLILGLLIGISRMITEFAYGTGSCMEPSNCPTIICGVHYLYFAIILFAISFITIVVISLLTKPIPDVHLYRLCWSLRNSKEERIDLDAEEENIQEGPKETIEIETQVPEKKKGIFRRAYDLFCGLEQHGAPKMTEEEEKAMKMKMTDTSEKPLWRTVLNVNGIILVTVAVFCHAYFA
As to the kind of experiment: Methyl-α-D-[U-14C]glucopyranoside uptake assay, COS-7 cells expressing human SGLT1. Format: cell-based. As to conditions: COS-7 cells expressing human SGLT1, 2 h incubation, without human serum (symbols without parentheses). The procedure: Full-length human SGLT1 cDNA on pDream2.1 expression vector was obtained from GenScript Corporation and propagated in Escherichia coli strain DH5α using Luria-Bertani (LB) medium containing ampicillin. Plasmid DNA was isolated using the QIAGEN Plasmid Midi Kit (QIAGEN Inc.). […] Transfected cells were stored in DMEM containing 10% dimethyl sulfoxide (DMSO) at −80° C.
as §1

With `CCc1ccc(Cc2cc([C@@H]3O[C@H](CO)[C@@H](O)[C@H](O)[C@H]3O)c(COCC(C)=O)cc2Cl)cc1` [Compound K, 1-(5-chloro-4-(4-ethylbenzyl)-2-((2S,3R,4R,5S,6R)-3,4,5-trihydroxy-6-(hydroxymethyl)tetrahydro-2H-pyran-2-yl)benzyloxy)propan-2-one], the concentration for half-maximal inhibition (IC50) (in general, the concentration at which inhibition is half-maximal) in test [1] is under 1000 nM; in test [2], over 10000 nM.
With `CCc1ccc(Cc2cc([C@@H]3O[C@H](CO)[C@@H](O)[C@H](O)[C@H]3O)c(COCC(O)CO)cc2Cl)cc1` (stereo partly drawn) [Compound L, (2S,3R,4R,5S,6R)-2-(4-chloro-2-((2,3-dihydroxypropoxy)methyl)-5-(4-ethylbenzyl)phenyl)-6-(hydroxymethyl)tetrahydro-2H-pyran-3,4,5-triol], the IC50 in test [1] is under 1000 nM; in test [2] it was over 10000 nM.
In the case of `CCc1ccc(Cc2cc([C@@H]3O[C@H](CO)[C@@H](O)[C@H](O)[C@H]3O)c(COCC(C)O)cc2Cl)cc1` (stereo partly drawn) [Compound M, (2S,3R,4R,5S,6R)-2-(4-chloro-5-(4-ethylbenzyl)-2-((2-hydroxypropoxy)methyl)phenyl)-6-(hydroxymethyl)tetrahydro-2H-pyran-3,4,5-triol], the values for the IC50 in test [1] and in test [2] were under 1000 nM and over 10000 nM, respectively.
As to `C#CCOCc1cc(Cl)c(Cc2ccc(CC)cc2)cc1[C@@H]1O[C@H](CO)[C@@H](O)[C@H](O)[C@H]1O` [Compound N, (2S,3R,4R,5S,6R)-2-(4-chloro-5-(4-ethylbenzyl)-2-((prop-2-ynyloxy)methyl)phenyl)-6-(hydroxymethyl)tetrahydro-2H-pyran-3,4,5-triol], the half-inhibitory concentration (IC50) in test [1] was under 1000 nM; in test [2], over 10000 nM.
On to `CCc1ccc(Cc2cc([C@@H]3O[C@H](CO)[C@@H](O)[C@H](O)[C@H]3O)c(COCCO)cc2Cl)cc1` [Compound O, (2S,3R,4R,5S,6R)-2-(4-chloro-5-(4-ethylbenzyl)-2-((2-hydroxyethoxy)methyl)phenyl)-6-(hydroxymethyl)tetrahydro-2H-pyran-3,4,5-triol], for which the IC50 in test [1] is under 1000 nM; in test [2], 1000 to 10000 nM.
With `CCc1ccc(Cc2cc([C@@H]3O[C@H](CO)[C@@H](O)[C@H](O)[C@H]3O)c(COCC(F)F)cc2Cl)cc1` [Compound R, (2S,3R,4R,5S,6R)-2-(4-chloro-2-((2,2-difluoroethoxy)methyl)-5-(4-ethylbenzyl)phenyl)-6-(hydroxymethyl)tetrahydro-2H-pyran-3,4,5-triol], the IC50 in test [1] is under 1000 nM; in test [2] it was over 10000 nM.
For the molecule `CCc1ccc(Cc2cc([C@@H]3O[C@H](CO)[C@@H](O)[C@H](O)[C@H]3O)c(COCCOC)cc2Cl)cc1` [Compound S, (2S,3R,4R,5S,6R)-2-(4-chloro-5-(4-ethylbenzyl)-2-((2-methoxyethoxy)methyl)phenyl)-6-(hydroxymethyl)tetrahydro-2H-pyran-3,4,5-triol], the values for the half-maximal inhibitory concentration (IC50) in test [1] and in test [2] were under 1000 nM and over 10000 nM, respectively.
Turning to `CCc1ccc(Cc2cc([C@@H]3O[C@H](CO)[C@@H](O)[C@H](O)[C@H]3O)c(COCC(C)F)cc2Cl)cc1` (stereo partly drawn) [Compound T, (2S,3R,4R,5S,6R)-2-(4-chloro-5-(4-ethylbenzyl)-2-((2-fluoropropoxy)methyl)phenyl)-6-(hydroxymethyl)tetrahydro-2H-pyran-3,4,5-triol], the results for the half-inhibitory concentration (IC50) in test [1] and in test [2] were under 1000 nM and 1000 to 10000 nM, respectively.
For the molecule `CCc1ccc(Cc2cc([C@@H]3O[C@H](CO)[C@@H](O)[C@H](O)[C@H]3O)c(COCC(O)COC)cc2Cl)cc1` (stereo partly drawn) [Compound W, (2S,3R,4R,5S,6R)-2-(4-chloro-5-(4-ethylbenzyl)-2-((2-hydroxy-3-methoxypropoxy)methyl)phenyl)-6-(hydroxymethyl)tetrahydro-2H-pyran-3,4,5-triol], the results for the IC50 in test [1] and in test [2] were under 1000 nM and over 10000 nM, respectively.
